Measurements as given in ChEMBL document CHEMBL1158188, “Natural polyphenols (vegetable tannins) as drugs: possible modes of action” (J Nat Prod, 1996).

Tests used:
[1] = Binding affinity to bradykinin
[2] = Binding affinity to desarginyl(9)bradykinin
[3] = Binding affinity to bradykinin peptide Arg-Pro-Pro-Gly-Phe
[4] = Binding affinity to desarginyl(1)bradykinin
[5] = Antioxidant activity assessed by hydroxyl radical scavenging assay; type: functional
[6] = Antioxidant activity assessed by singlet oxygen scavenging assay; type: functional
[7] = Antioxidant activity assessed by superoxide anion scavenging assay; type: functional
[8] = Octanol-water partition coefficient of the compound; type: physicochemical; conditions: read-out: log KOW

Row | Structure (SMILES) | Ka [1] [M⁻¹] | IC50 [5] [µM] | IC50 [6] [µM] | IC50 [7] [nM] | other results
1 | O=C(OC[C@H]1O[C@@H](OC(=O)c2cc(O)c(O)c(O)c2)[C@H](O)[C@@H](OC(=O)c2cc(O)c(O)c(O)c2)[C@@H]1O)c1cc(O)c(O)c(O)c1 | 4.4 |  |  |  | 
2 | O=C(OC[C@H]1O[C@@H](OC(=O)c2cc(O)c(O)c(O)c2)[C@H](OC(=O)c2cc(O)c(O)c(O)c2)[C@@H](O)[C@@H]1OC(=O)c1cc(O)c(O)c(O)c1)c1cc(O)c(O)c(O)c1 | 20.5 |  |  |  | 
3 | O=C(OC[C@H]1O[C@@H](OC(=O)c2cc(O)c(O)c(O)c2)[C@H](OC(=O)c2cc(O)c(O)c(O)c2)[C@@H](OC(=O)c2cc(O)c(O)c(O)c2)[C@@H]1OC(=O)c1cc(O)c(O)c(O)c1)c1cc(O)c(O)c(O)c1 | 33.7 |  |  |  | Ka [2]: 20.4 M⁻¹; Ka [3]: 13 M⁻¹; Ka [4]: 20 M⁻¹
4 | Oc1cc(O)c2c(c1)O[C@H](c1ccc(O)c(O)c1)[C@H](O)[C@H]2c1c(O)cc(O)c2c1O[C@H](c1ccc(O)c(O)c1)[C@H](O)C2 | 8.2 |  |  |  | 
5 | O=C1O[C@H]([C@@H](O)CO)C(O)=C1O [ASCORBIC ACID] |  | 18.8 | 120 | 23300 | 
6 | O=C1OC[C@H]2OC(=O)c3cc(O)c(O)c(O)c3-c3c(O)c(O)c(O)c4c3C(=O)O[C@H]([C@H]3OC(=O)c5c-4c(O)c(O)c(O)c5[C@H]3O)[C@@H]2OC(=O)c2cc(O)c(O)c(O)c2-c2c1cc(O)c(O)c2O [CASTALAGIN] |  |  |  |  | logP [8]: 0.1
7 | O=C(O)c1cc(O)c(O)c(O)c1 [GALLIC ACID] |  | 78 | 69.8 | 1010 | 
8 | O=C(OC[C@@H]1OC(O)[C@](O)(COC(=O)c2cc(O)c(O)c(O)c2)[C@H]1O)c1cc(O)c(O)c(O)c1 (stereo partly specified) [HAMAMELITANIN] |  | 5.46 | 45.5 | 1310 | 
9 | CCCOC(=O)c1cc(O)c(O)c(O)c1 [PROPYL GALLATE] |  | 86.5 | 66.7 | 1410 | 
10 | O=C1OCC2OC(=O)c3cc(O)c(O)c(O)c3-c3c(O)c(O)c(O)c4c3C(=O)OC(C2OC(=O)c2cc(O)c(O)c(O)c2-c2c1cc(O)c(O)c2O)C1OC(=O)c2c-4c(O)c(O)c(O)c2C1O (stereo unspecified) [VESCALAGIN] |  |  |  |  | logP [8]: 0.1
